Series [1] can be described thus: Ratio of unbound drug concentration in IL-23/IL-1beta induced C57BL/6J mouse plasma at 70 mg/kg, po to EC50 for JAK2 (unknown origin) assessed as inhibition of EPO-mediated STAT5 phosphorylation. The format is organism-based. To be noted: in vivo.
The target in series [2] is T1, Tyrosine-protein kinase JAK3 (Homo sapiens, UniProt P52333).
T1 sequence (P52333 whole entry): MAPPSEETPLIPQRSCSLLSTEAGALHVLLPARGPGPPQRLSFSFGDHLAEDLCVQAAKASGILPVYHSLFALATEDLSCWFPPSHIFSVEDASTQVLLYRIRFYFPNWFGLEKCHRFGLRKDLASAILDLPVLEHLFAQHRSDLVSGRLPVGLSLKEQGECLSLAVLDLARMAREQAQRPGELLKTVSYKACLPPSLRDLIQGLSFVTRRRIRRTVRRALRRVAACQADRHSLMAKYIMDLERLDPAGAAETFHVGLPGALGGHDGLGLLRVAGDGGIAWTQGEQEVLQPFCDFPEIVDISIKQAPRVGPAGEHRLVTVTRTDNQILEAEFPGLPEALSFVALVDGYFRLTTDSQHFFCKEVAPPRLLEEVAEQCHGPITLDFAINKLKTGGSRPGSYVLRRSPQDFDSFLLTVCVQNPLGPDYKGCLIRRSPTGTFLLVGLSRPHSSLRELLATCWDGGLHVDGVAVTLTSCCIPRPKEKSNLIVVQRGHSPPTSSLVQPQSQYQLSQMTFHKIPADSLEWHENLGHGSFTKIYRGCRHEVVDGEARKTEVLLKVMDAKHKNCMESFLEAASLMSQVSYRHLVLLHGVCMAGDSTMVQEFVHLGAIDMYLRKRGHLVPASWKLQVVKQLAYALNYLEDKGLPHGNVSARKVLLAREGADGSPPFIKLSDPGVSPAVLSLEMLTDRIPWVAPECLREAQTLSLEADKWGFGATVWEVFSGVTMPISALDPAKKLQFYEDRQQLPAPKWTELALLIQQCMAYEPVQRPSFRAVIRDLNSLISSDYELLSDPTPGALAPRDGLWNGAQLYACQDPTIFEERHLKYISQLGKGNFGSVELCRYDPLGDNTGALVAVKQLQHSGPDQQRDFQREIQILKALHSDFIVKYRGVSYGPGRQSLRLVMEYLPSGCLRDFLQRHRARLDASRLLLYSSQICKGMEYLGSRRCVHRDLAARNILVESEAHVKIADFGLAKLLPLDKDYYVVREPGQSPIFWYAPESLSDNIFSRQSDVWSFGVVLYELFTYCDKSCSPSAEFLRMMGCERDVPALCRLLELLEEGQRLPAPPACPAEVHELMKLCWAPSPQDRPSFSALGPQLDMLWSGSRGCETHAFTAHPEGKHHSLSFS
In words: Inhibition of JAK3 (unknown origin).

For series [3], the system named is Mus musculus. In words: Anti-inflammatory activity in IL-23/IL-1beta induced C57BL/6J mouse assessed as inhibition of IL-17F level in serum pretreated po for 30 mins followed by cytokine addition measured after 3 hrs by ELISA. The format is functional, organism-based. On the technique in general: An ELISA detects its analyte on a solid surface through an enzyme-linked reagent.

The species entered for the next series is Homo sapiens. Briefly: Selectivity ratio of EC50 for JAK2 (unknown origin) assessed as EPO-induced STAT5 phosphorylation to EC50 for TYK2 (unknown origin) assessed as IL-23-induced STAT3 phosphorylation.
Series [4] has as its system Mus musculus. Briefly: Antiinflammatory activity in IMQ-induced BALB/c mouse psoriasis model assessed as reduction in ear thickness at 100 mg/kg, po bid for 5 days meausred on day 6. The format is functional. Also on record: scale not given: the % may be the effect or the level left.
The target in series [5] is Non-receptor tyrosine-protein kinase TYK2 (Homo sapiens, UniProt P29597). Briefly: Inhibition of TYK2 (unknown origin) assessed as reduction in IL-23 induced STAT3 phosphorylation by cell based ELISA.
Non-receptor tyrosine-protein kinase TYK2, sequence (P29597 whole entry): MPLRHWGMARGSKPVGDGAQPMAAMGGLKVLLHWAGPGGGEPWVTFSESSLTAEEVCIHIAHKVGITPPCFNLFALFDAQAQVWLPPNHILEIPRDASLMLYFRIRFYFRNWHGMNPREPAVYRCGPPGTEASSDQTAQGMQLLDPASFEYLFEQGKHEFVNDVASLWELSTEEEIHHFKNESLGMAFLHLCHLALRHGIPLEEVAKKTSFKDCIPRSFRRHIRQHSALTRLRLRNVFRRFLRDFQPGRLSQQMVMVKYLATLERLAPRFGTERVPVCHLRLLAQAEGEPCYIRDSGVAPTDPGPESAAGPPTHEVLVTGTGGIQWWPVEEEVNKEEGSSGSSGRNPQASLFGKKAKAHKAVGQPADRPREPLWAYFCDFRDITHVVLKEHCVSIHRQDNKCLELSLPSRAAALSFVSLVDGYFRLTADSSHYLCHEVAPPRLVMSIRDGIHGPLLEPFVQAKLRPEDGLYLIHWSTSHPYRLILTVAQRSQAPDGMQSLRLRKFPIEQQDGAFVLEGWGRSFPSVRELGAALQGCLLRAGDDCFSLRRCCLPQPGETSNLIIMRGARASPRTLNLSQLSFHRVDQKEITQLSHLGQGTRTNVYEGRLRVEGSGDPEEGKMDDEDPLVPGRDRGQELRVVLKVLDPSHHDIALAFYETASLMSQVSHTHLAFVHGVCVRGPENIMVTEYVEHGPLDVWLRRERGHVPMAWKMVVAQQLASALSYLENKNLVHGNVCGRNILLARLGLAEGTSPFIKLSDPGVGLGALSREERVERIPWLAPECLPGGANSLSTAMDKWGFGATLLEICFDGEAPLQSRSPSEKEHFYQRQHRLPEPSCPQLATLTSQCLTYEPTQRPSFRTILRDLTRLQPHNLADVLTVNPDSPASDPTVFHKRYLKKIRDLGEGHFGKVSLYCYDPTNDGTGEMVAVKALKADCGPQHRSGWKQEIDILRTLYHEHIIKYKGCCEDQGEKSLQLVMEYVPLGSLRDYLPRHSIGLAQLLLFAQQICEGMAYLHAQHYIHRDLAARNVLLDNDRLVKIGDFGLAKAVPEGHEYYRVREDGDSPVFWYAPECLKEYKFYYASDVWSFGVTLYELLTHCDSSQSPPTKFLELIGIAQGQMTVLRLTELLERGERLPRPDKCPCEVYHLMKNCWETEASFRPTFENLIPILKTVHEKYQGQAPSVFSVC
A short description of series [6]: Ratio of unbound drug concentration in IL-23/IL-1beta induced C57BL/6J mouse plasma at 30 mg/kg, po to EC50 for TYK2 (unknown origin) assessed as inhibition of IL-23 induced STAT3 phosphorylation.
The test system of series [7] is Mus musculus. Briefly: Antiinflammatory activity in IMQ-induced BALB/c mouse psoriasis model assessed as reduction in ear thickness at 70 mg/kg, po bid for 5 days meausred on day 6. Type of series: functional. Also on record: scale not given: the % may be the effect or the level left.

As a reminder, the Ki is the dissociation constant of the complex between target and ligand, obtained from inhibition or displacement. A word on the EC50: it is the concentration needed to bring the measured effect to its halfway point. Turning to `Cc1cc(Nc2nccc3nc(-c4c(Cl)cc(C#N)cc4Cl)[nH]c23)ncn1`, the Ratio in series [1] is 1.1; in series [6] it was 13. This compound also came in with a Ki in series [2] of 58 nM. Besides, the inhibition entry in the series with Mus musculus [3] is “Dose-dependent effect”. The Ratio EC50 in the series listed under Homo sapiens stood at 21. Moreover, the figures for the Activity in the series with Mus musculus [4] and in the series on Mus musculus [7] were 82% and 78%, respectively. Further, the EC50 in series [5] was determined as 66 nM.

Values taken from ChEMBL document CHEMBL4043190 (Bioorg Med Chem Lett, 2017).
